Laboratory results from patent US10800741B2 (ANCUREALL PHARMACEUTICAL (SHANGHAI) CO., LTD., priority 2017, dated 2020).

How the values were obtained:
Type in all cases: cell-based, Human
MOLM-13 (FLT3-ITD) = assay: In vitro growth inhibition of MOLM-13 tumor cells (MTT/CCK8); conditions: Homo sapiens, MOLM-13; in vitro growth inhibition (or induction of apoptosis), cells cultured 3 to 5 days, MTT (CCK8); read-out: IC50 MOLM-13 (FLT3-ITD)
Kasumi-1 (KIT N822K) = assay: In vitro growth inhibition of Kasumi-1 tumor cells (MTT/CCK8); conditions: Homo sapiens, Kasumi 1; in vitro growth inhibition (or induction of apoptosis), cells cultured 3 to 5 days, MTT (CCK8); read-out: IC50 Kasumi-1 (KIT N822K)
KCL-22 (BCR-ABL) = assay: In vitro growth inhibition of KCL-22 tumor cells (MTT/CCK8); conditions: Homo sapiens, KCL-22; in vitro growth inhibition (or induction of apoptosis), cells cultured 3 to 5 days, MTT (CCK8); read-out: IC50 KCL-22 (BCR-ABL)
H1581 (FGFR1 amp) = assay: In vitro growth inhibition of H1581 tumor cells (MTT/CCK8); conditions: Homo sapiens, NCI-H1581; in vitro growth inhibition (or induction of apoptosis), cells cultured 3 to 5 days, MTT (CCK8); read-out: IC50 H1581 (FGFR1 amp)
KATO III (FGFR2 amp) = assay: In vitro growth inhibition of KATO III tumor cells (MTT/CCK8); conditions: Homo sapiens, KATO III; in vitro growth inhibition (or induction of apoptosis), cells cultured 3 to 5 days, MTT (CCK8); read-out: IC50 KATO III (FGFR2 amp)
Hep3B2 (FGFR3/4+++) = assay: In vitro growth inhibition of Hep3B2 tumor cells (MTT/CCK8); conditions: Homo sapiens, Hep3B; in vitro growth inhibition (or induction of apoptosis), cells cultured 3 to 5 days, MTT (CCK8); read-out: IC50 Hep3B2 (FGFR3/4+++)
H1703 (PDGFRa amp) = assay: In vitro growth inhibition of H1703 tumor cells (MTT/CCK8); conditions: Homo sapiens, NCI-H1703; in vitro growth inhibition (or induction of apoptosis), cells cultured 3 to 5 days, MTT (CCK8); read-out: IC50 H1703 (PDGFRa amp)
Karpas 299 (NPM-ALK) = assay: In vitro growth inhibition of Karpas 299 tumor cells (MTT/CCK8); conditions: Homo sapiens, KARPAS-299; in vitro growth inhibition (or induction of apoptosis), cells cultured 3 to 5 days, MTT (CCK8); read-out: IC50 Karpas 299 (NPM-ALK)

| Compound | IC50 (MOLM-13 (FLT3-ITD)) | IC50 (Kasumi-1 (KIT N822K)) | IC50 (KCL-22 (BCR-ABL)) | IC50 (H1581 (FGFR1 amp)) | IC50 (KATO III (FGFR2 amp)) | IC50 (Hep3B2 (FGFR3/4+++)) | IC50 (H1703 (PDGFRa amp)) | IC50 (Karpas 299 (NPM-ALK)) |
| --- | --- | --- | --- | --- | --- | --- | --- | --- |
| COc1cc2nccc(Oc3ccc(NC(=O)Nc4cc(C(C)(C)C)on4)c(Cl)c3)c2cc1NC(C)=O [Compound 20] | 2.21 nM | 22.1 nM | 5.55 nM | 1.75 nM | 1.14 nM | 13.9 nM | 8.71 nM | 195 nM |
| COc1cc2nc(Cl)cc(Oc3ccc(NC(=O)Nc4cc(C(C)(C)C)nn4C)c(Cl)c3)c2cc1C(N)=O [Compound 39, 4-{4-[3-(5-tert-butyl-2-methyl-2H-pyrazol-3-yl)-ureido]-3-chloro-phenoxy}-2-chloro-7-methoxyquinolin-6-carboxamide] | > 1000 nM | > 1000 nM | > 2500 nM | > 1000 nM | > 1000 nM | > 1000 nM | > 1000 nM | > 1000 nM |
| C=CC(=O)Nc1cc2c(Oc3ccc(NC(=O)Nc4cc(C(C)(C)C)on4)c(Cl)c3)ccnc2cc1OC [Compound 22, N-(4-{4-[3-(5-tert-butyl-isoxazol-3-yl)-ureido]-3-chloro-phenoxy}-7-methoxyquinolin-6-yl)-acrylamide] | 16.9 nM | 91.7 nM | 61.7 nM | 40.7 nM | 8.54 nM | 18.7 nM | 27.8 nM | 610 nM |
| COc1cc2nccc(Nc3ccc(NC(=O)Nc4cc(C(C)(C)C)on4)cc3)c2cc1C(N)=O [Compound 78, 4-{4-[3-(5-tert-butyl-isoxazol-3-yl)-ureido]-phenylamino}-7-methoxyquinolin-6-carboxamide] | 1.37 nM | > 1000 nM | > 1000 nM | 684 nM | 36.6 nM | 502 nM | 447 nM | > 1000 nM |
| COc1cc2nccc(Oc3ccc(NC(=O)Nc4cc(C(C)(C)C)nn4C)c(Cl)c3)c2cc1C(N)=O [Compound 26, 4-{4-[3-(5-tert-butyl-2-methyl-2H-pyrazol-3-yl)-ureido]-3-chloro-phenoxy}-7-methoxyquinolin-6-carboxamide] | 1.35 nM | 16.9 nM | 5.16 nM | 9.78 nM | 0.07 nM | 10.9 nM | 8.2 nM | 524 nM |
| CC(C)(C)c1cc(NC(=O)Nc2ccc(Oc3ccnc4cc(OCCN5CCCCC5)c(C(N)=O)cc34)cc2Cl)[nH]n1 [Compound 84, 4-{4-[3-(5-tert-butyl-2H-pyrazol-3-yl)-ureido]-3-chloro-phenoxy}-7-(2-piperidin-1-yl-ethoxy)-quinolin-pyridine-6-carboxamide] | 35.2 nM | 240 nM | 287 nM | 114 nM | 6.09 nM | 148 nM | 127 nM | > 1000 nM |
